Assay results taken from US20060258729A1, “Antibacterial pyrazole carboxylic acid hydrazides” (priority 2002, published 2006).
Values after ≈ are worked out from the molar mass of the structure shown. “Also recorded” adds a separate entry of the source.

Legend:
B. subtilis pol IIIE [1] = target: T1, B. subtilis pol IIIE (Bacillus subtilis, UniProt O34623); experiment: DNA polymerase assay, B. subtilis pol IIIE; format: biochemical
T1 construct: made in house

B. subtilis pol IIIE [2] = target: T1, B. subtilis pol IIIE; experiment: DNA polymerase assay, B. subtilis pol IIIE; format: biochemical; conditions: for IC50: B. subtilis Pol IIIE IC50, 4 dNTPs, in the presence of all four dNTP substrates
Procedure: (§1) Recombinant, purified pol IIIC and pol IIIE from Bacillus subtilis were obtained using known methods (Hammond et al., Gene 98: 29-36 (1991), regarding pol IIIC; Barnes et al., J. Bacteriol. 184, 3834-3838 (2002), regarding pol IIIE). Recombinant, purified pol IIIE from Escherichia coli was obtained from a commercial source (Enzyco, Denver, Colo.). The enzyme assays were performed in 96-well plate format using the same assay mix for all three enzymes. Each 25 μL assay contained 30 mM Tris, pH 7.5, 10 mM magnesium acetate, 4 mM dithiothreitol, 20% glycerol, with 10 μM dATP, dCTP, dGTP and dTTP (3H-labelled at 1.44 Ci/mmole) and 0.4 mg/mL activated calf thymus DNA as substrates. Dilutions of compounds were added to the plate in 1% DMSO (1 μL/well). Assays were initiated by the addition of 0.025 to 0.06 units of enzyme (1 unit is the amount required to incorporate 250 pmoles of [^3H] dTMP in a standard assay), incubated for 10 min at 30° C. and terminated by the addition of 200 μL of cold 10% trichloroacetic acid, 10 mM sodium pyrophosphate. Precipitated labeled DNA was collected on glass fiber filter plates that had been pre-wet with ice cold 1 M HCl, 100 mM sodium pyrophosphate. The plates were washed with the HCl solution followed by ice cold 90% ethanol and then dried and counted in a liquid scintillation counter. The calculated IC50 is the concentration needed to inhibit 50% of the DNA polymerase activity in the presence of all four dNTP substrates. In addition, percent inhibition values are calculated as the percent reduction in the activity of a DMSO (diluent) control.

[3] = test system: Escherichia coli strain J53; experiment: Inhibition of bacterial growth (MIC), Ec; format: cell-based; conditions: 16 to 18 hours, 37° C.; for MIC: read-out: Minimum Inhibitory Concentration for Bacterial Growth, Ec
Procedure: (§2) Each compound was assayed against a panel of a strain of Bacillus subtilis, of strains of antibiotic-resistant and sensitive Enterococcus and Staphylococcus species, and of a strain of the Gram-negative bacterium Escherichia coli. Compounds were dissolved in DMSO at 100× the desired highest concentration and added to one well of a 96-well microassay plate. Two-fold serial drug dilutions were made across the plate in DMSO to yield 11 concentrations (usually 80-0.078 μg/mL) plus an untreated control. Drugs were then transferred to fresh plates using 1.5 μL per well. Log phase cultures were diluted to yield a concentration of 1×10^5 colony forming units/mL in either LB or BHI medium and transferred to the plates containing drug for a final volume of 150 μL. Each well, including the DMSO controls, contained a final concentration of 1% DMSO. Plates were incubated with shaking at 37° C. for 16 to 18 hours. Cell growth was determined by measuring optical density (570 nm, 1 cm path length) in a microplate reader. MIC (minimum inhibitory concentration) is equivalent to the lowest concentration at which growth is not observed. The bacterial strains and MIC determinations have been well characterized and are described elsewhere (Tarantino et al., Antimicrob. Agents Chemother., 43: 1982-1987 (1999); Daly et al., Antimicrob. Agents Chemother., 44: 2217-2221 (2000)).

test strains of bacteria = experiment: Inhibition of bacterial growth, whole panel of test strains; format: cell-based
Procedure: as §2

[4] = test system: methicillin-resistant S. aureus strain 1094; experiment: Inhibition of bacterial growth (MIC), MRSA; format: cell-based, Staphylococcus aureus; conditions: 16 to 18 hours, 37° C.; for MIC: Staphylococcus aureus, MRSA, read-out: Minimum Inhibitory Concentration for Bacterial Growth, MRSA
Procedure: as §2

S. aureus Smith strain = experiment: Inhibition of bacterial growth (MIC), Sm; format: cell-based, Staphylococcus aureus; conditions: 16 to 18 hours, 37° C.; for MIC: Staphylococcus aureus, read-out: Minimum Inhibitory Concentration for Bacterial Growth, Sm
Procedure: as §2

[5] = test system: E. faecium clinical isolate; experiment: Inhibition of bacterial growth (MIC), Efcm; format: cell-based; conditions: 16 to 18 hours, 37° C.; for MIC: Enterococcus faecium, read-out: Minimum Inhibitory Concentration for Bacterial Growth, Efcm
Procedure: as §2

[6] = test system: Enterococcus faecalis strain 29212; experiment: Inhibition of bacterial growth (MIC), Efcl; format: cell-based; conditions: 16 to 18 hours, 37° C.; for MIC: read-out: Minimum Inhibitory Concentration for Bacterial Growth, Efcl
Procedure: as §2

B. subtilis pol IIIC [7] = target: T2, B. subtilis pol IIIC (Bacillus subtilis, UniProt P13267); experiment: DNA polymerase assay, B. subtilis pol IIIC; format: biochemical; conditions: for inhibition at 80 µg/mL: read-out: Percent Enzymatic Inhibition B. subtilis pol IIIC
T2 construct: made in house
Procedure: as §1, with “Each 25 μL assay contained 30 mM Tris, pH 7.5, 10 mM magnesium acetate, 4 mM dithiothreitol, 20% glycerol, with 10 μM dATP, dCTP, dGTP and dTTP (3H-labelled at 1.44 Ci/mmole) and 0.4 mg/mL activated calf thymus DNA as substrates.” left out, “The calculated IC50 is the concentration needed to inhibit 50% of the DNA polymerase activity in the presence of all four dNTP substrates.” left out

[8] = test system: vancomycin-resistant Enterococcus strain B42762; experiment: Inhibition of bacterial growth (MIC), VRE; format: cell-based; conditions: 16 to 18 hours, 37° C.; for MIC: VRE, read-out: Minimum Inhibitory Concentration for Bacterial Growth, VRE
Procedure: as §2

E. coli pol IIIE = target: T3, E. coli pol IIIE (Escherichia coli, UniProt P10443); experiment: DNA polymerase assay, E. coli pol IIIE; format: biochemical; conditions: 80 μg/mL (190-260 μM) final concentration, all four dNTPs
T3 construct: purchased Enzyco, Denver, Colo
Procedure: as §1

[9] = test system: Bacillus subtilis strain BD54; experiment: Inhibition of bacterial growth (MIC), Bs; format: cell-based; conditions: 16 to 18 hours, 37° C.; for MIC: read-out: Minimum Inhibitory Concentration for Bacterial Growth, Bs
Procedure: as §2

[10] = test system: Staphylococcus aureus strain IP 8; experiment: Inhibition of bacterial growth (MIC), Sa; format: cell-based; conditions: 37° C.; for MIC: IP8, 16 to 18 hours, read-out: Minimum Inhibitory Concentration for Bacterial Growth, Sa
Procedure: as §2

B. subtilis pol IIIC [11] = target: T2, B. subtilis pol IIIC; experiment: Classical enzyme kinetic analyses (Lineweaver-Burk) with pol IIIC; format: biochemical; conditions: variable substrate dGTP; Compound 17 at 0, 20, 60 μM; HB-EMAU at 0, 1.6, 4.8 μM
Procedure: The variable substrate in the experiments for FIGS. 1A and 1B was dGTP. See text for details.
Classical enzyme kinetic analyses were performed with Compound 17 and pol IIIC in which reaction velocity was measured as a function of each substrate (dGTP) concentration at several inhibitor concentrations (0, 20, and 60 μM). The results are graphed in a double reciprocal plot by the method of Lineweaver and Burk in FIG. 1A and show the effect of varying dGTP.
Compounds of the anilinouracil (AU) family, classical DNA polymerase inhibitors, inhibit pol IIIC strictly by “competitive” inhibition. An example is shown in the double reciprocal plot in FIG. 1B for the compound N3-hydroxybutyl 6-(3′-ethyl-4′-methylanilino) uracil (HB-EMAU), tested at 0, 1.6, and 4.8 μM. Such AU compounds compete with the dGTP substrate for binding to the enzyme (Clements et al., J. Biol. Chem. 250, 522-526 (1975)). “Noncompetive” inhibitors are exemplified by the class of HIV reverse transcriptase inhibitors, 4,5,6,7-tetrahydro-5-methylimidazo[4,5,1-jk][1,4]benzodiazepin-2(1H)-one (TIBO), i.e., TIBO compounds bind a site adjacent to the active site (Spence et al., Science 267, 988-993 (1995)). In contrast, the data in FIG. 1A clearly indicate that Compound 17, a pyrazole carboxylic acid hydrazide, inhibits pol IIIC by an “uncompetitive” mechanism.

[12] = B. subtilis Pol IIIE IC50, −dATP, in the absence of dATP
[13] = B. subtilis Pol IIIE IC50, −dCTP, in the absence of dCTP
[14] = B. subtilis Pol IIIE IC50, −dGTP, in the absence of dGTP
[15] = 80 μg/mL (190-260 μM) final concentration, all four dNTPs
[16] = B. subtilis Pol IIIC IC50, 4 dNTPs, in the presence of all four dNTP substrates
[17] = B. subtilis Pol IIIC IC50, −dATP, in the absence of dATP
[18] = B. subtilis Pol IIIC IC50, −dCTP, in the absence of dCTP
[19] = B. subtilis Pol IIIC IC50, −dGTP, in the absence of dGTP

T3 sequence (P10443 whole entry): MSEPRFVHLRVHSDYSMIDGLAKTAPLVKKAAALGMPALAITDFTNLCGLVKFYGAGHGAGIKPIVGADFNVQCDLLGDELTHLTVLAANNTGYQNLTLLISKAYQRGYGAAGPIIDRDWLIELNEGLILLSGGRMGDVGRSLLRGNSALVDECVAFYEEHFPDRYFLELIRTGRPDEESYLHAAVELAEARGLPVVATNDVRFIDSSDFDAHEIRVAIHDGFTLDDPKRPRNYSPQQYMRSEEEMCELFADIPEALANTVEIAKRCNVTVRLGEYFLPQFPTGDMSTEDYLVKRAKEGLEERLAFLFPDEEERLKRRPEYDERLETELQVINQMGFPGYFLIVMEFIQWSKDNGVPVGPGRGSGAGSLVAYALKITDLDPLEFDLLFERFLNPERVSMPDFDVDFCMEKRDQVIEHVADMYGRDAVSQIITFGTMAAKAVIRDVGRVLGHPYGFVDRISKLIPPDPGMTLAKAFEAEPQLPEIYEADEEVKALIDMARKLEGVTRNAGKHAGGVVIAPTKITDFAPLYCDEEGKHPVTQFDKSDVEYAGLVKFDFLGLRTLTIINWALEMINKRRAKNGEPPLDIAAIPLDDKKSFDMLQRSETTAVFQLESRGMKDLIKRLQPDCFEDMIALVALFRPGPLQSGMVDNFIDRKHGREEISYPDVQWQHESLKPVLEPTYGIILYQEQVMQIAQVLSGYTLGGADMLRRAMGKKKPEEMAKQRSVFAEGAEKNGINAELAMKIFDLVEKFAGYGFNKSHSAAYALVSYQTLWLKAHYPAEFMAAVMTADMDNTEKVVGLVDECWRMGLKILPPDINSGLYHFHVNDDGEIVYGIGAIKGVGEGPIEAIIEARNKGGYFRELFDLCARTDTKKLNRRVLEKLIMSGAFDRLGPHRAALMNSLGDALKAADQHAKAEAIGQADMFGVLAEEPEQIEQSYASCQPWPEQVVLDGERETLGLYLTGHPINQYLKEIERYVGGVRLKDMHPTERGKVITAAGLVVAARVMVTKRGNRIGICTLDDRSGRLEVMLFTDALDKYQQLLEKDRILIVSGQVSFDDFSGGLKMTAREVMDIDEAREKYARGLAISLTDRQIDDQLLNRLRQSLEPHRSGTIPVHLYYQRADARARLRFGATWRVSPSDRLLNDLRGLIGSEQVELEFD
T1 sequence (O34623 whole entry): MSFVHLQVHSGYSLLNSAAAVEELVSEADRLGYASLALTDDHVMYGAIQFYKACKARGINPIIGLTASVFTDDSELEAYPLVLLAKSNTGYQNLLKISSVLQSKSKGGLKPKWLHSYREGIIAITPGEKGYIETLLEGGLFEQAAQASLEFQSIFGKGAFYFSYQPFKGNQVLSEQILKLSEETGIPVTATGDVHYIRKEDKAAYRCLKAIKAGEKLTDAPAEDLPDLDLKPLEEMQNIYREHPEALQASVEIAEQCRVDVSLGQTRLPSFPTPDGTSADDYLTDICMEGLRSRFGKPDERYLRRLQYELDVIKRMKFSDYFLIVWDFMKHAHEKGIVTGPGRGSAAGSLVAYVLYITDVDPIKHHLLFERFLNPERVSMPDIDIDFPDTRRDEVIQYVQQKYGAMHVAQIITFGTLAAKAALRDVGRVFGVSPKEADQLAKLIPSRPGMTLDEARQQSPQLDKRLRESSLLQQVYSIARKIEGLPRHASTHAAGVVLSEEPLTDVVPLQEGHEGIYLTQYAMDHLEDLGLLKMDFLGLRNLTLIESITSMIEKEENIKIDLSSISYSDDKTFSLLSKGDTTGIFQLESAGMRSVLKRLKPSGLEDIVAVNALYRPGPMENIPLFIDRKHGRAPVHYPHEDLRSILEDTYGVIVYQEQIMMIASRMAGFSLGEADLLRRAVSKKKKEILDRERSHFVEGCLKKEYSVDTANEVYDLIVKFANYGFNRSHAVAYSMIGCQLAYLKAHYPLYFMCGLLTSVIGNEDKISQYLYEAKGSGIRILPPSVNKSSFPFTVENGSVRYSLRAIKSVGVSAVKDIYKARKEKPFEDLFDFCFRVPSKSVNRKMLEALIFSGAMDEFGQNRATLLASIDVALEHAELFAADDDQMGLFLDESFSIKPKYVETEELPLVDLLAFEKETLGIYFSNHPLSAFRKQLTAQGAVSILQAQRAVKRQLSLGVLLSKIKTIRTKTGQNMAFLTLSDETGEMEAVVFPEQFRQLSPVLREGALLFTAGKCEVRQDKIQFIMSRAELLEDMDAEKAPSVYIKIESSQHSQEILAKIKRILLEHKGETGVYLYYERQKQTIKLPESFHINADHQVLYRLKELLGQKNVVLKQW
T2 sequence (P13267 whole entry): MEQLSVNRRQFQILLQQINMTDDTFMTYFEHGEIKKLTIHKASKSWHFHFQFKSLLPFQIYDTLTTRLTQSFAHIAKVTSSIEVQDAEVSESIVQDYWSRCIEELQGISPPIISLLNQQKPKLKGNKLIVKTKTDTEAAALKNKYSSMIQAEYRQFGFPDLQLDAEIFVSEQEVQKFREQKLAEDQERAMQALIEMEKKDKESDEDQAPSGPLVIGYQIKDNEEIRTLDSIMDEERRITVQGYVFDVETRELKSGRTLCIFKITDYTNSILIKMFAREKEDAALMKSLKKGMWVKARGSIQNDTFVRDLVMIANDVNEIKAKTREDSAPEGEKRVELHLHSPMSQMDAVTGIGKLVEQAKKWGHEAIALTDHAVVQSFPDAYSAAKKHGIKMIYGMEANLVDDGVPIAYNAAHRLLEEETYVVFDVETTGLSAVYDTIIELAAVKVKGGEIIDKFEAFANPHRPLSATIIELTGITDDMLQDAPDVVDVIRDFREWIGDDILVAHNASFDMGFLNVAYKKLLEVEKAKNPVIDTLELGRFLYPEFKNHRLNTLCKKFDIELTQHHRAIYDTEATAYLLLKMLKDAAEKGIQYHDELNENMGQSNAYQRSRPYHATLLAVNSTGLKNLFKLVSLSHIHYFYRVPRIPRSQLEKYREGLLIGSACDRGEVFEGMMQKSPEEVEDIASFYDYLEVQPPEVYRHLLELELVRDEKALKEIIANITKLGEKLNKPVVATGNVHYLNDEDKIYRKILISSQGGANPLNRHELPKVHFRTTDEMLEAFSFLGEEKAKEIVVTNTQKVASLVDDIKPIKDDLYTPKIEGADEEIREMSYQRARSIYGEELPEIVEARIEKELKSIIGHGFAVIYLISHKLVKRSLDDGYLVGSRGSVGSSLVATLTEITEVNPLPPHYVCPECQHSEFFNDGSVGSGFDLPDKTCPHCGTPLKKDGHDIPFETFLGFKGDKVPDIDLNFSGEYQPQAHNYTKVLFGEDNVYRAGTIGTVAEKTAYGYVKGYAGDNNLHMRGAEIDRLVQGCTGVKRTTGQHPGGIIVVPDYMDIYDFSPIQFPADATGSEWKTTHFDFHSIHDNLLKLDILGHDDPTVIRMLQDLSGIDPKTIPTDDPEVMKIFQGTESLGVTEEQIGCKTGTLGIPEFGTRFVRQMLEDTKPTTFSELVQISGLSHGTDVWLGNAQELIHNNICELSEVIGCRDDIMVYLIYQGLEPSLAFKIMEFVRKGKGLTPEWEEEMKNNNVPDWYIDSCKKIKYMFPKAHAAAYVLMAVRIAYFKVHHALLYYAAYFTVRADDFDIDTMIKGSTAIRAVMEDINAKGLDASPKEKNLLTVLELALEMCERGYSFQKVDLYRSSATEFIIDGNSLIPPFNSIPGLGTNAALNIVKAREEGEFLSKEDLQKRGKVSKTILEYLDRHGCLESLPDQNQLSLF

Work on `COc1cc(C=NNC(=O)c2cc(-c3ccccc3)n[nH]2)cc(OC)c1OC` [Compound 1] yielded an IC50 (B. subtilis pol IIIE [1]; [12]) of 75 µM, an IC50 (B. subtilis pol IIIE [1]; [13]) of 62 µM and an IC50 (B. subtilis pol IIIE [1]; [14]) of 51 µM. The IC50 (B. subtilis pol IIIE [2]) was 166 µM, the MIC [3] was greater than 80 mg/L and the “Inhibition of bacterial growth, result in words (rank of MIC values)” value (shortened to “Inhibition of bacterial growth, result”) (test strains of bacteria) was “second”. The MIC [4] was 10 mg/L (≈ 26.3 µM), the MIC (S. aureus Smith strain) was 5 mg/L (≈ 13.1 µM) and the MIC [5] was 20 mg/L (≈ 52.6 µM). It also gave an MIC [6] of 10 mg/L (≈ 26.3 µM), an inhibition at 80 µg/mL (B. subtilis pol IIIC [7]; [15]) of 14.3% and an IC50 (B. subtilis pol IIIC [7]; [16]) of 188 µM. For the same compound, the IC50 (B. subtilis pol IIIC [7]; [17]) was 10 µM, the IC50 (B. subtilis pol IIIC [7]; [18]) was 44 µM and the IC50 (B. subtilis pol IIIC [7]; [19]) was 14 µM. It also gave an MIC [8] of 20 mg/L (≈ 52.6 µM), an inhibition at 80 µg/mL (E. coli pol IIIE; read-out: Percent Enzymatic Inhibition E. coli pol IIIE) of 0.4% and an MIC [9] of 3 mg/L (≈ 7.89 µM). The MIC [10] was 3 mg/L (≈ 7.89 µM).
For `CCOc1cccc(-c2cc(C(=O)NN=Cc3cccc(OC)c3O)[nH]n2)c1` [Compound 7], the “Percent Enzymatic Inhibition B. subtilis pol IIIE” value (B. subtilis pol IIIE [2]; [15]) was “not sufficient to show a significant inhibition; also recorded: Inactive”, the “Minimum Inhibitory Concentration for Bacterial Growth, Ec” value [3] was greater than 80 µg/mL and the “Inhibition of bacterial growth, result” value (test strains of bacteria) was “able to inhibit growth”. For the same compound, the “Minimum Inhibitory Concentration for Bacterial Growth, MRSA” value [4] was 30 µg/mL, the “Minimum Inhibitory Concentration for Bacterial Growth, Sm” value (S. aureus Smith strain) was 40 µg/mL and the “Minimum Inhibitory Concentration for Bacterial Growth, Efcm” value [5] was greater than 80 µg/mL. For the same compound, the “Minimum Inhibitory Concentration for Bacterial Growth, Efcl” value [6] was greater than 80 µg/mL, the “Percent Enzymatic Inhibition B. subtilis pol IIIC” value (B. subtilis pol IIIC [7]; [15]) was “not sufficient to show a significant inhibition; also recorded: Inactive” and the “Minimum Inhibitory Concentration for Bacterial Growth, VRE” value [8] was greater than 80 µg/mL. For the same compound, the “Percent Enzymatic Inhibition E. coli pol IIIE” value (E. coli pol IIIE) was “not sufficient to show a significant inhibition; also recorded: Inactive”, the “Minimum Inhibitory Concentration for Bacterial Growth, Bs” value [9] was 80 µg/mL and the “Minimum Inhibitory Concentration for Bacterial Growth, Sa” value ([10]; 16 to 18 hours) was 30 µg/mL.
`COc1ccc(-c2cc(C(=O)NN=Cc3ccc(OC)c(OC)c3)[nH]n2)cc1` [Compound 18] showed an IC50 (B. subtilis pol IIIE [1]; [12]) of 345 µM, an IC50 (B. subtilis pol IIIE [1]; [13]) greater than 1000 µM and an IC50 (B. subtilis pol IIIE [1]; [14]) greater than 1000 µM. It also gave an inhibition at 80 µg/mL (B. subtilis pol IIIE [2]; 80 μg/mL (190-260 μM) final concentration, all four dNTPs, read-out: Percent Enzymatic Inhibition B. subtilis pol IIIE) greater than 20%, an IC50 (B. subtilis pol IIIE [2]) of 278 µM and an MIC [3] greater than 80 mg/L. For the same compound, the “Inhibition of bacterial growth, result” value (test strains of bacteria) was “third place”, the MIC [4] was 10 mg/L (≈ 26.3 µM) and the MIC (S. aureus Smith strain) was 5 mg/L (≈ 13.1 µM). For the same compound, the MIC [5] was 20 mg/L (≈ 52.6 µM), the MIC [6] was 40 mg/L (≈ 105 µM) and the inhibition at 80 µg/mL (B. subtilis pol IIIC [7]; [15]) was greater than 20%. For the same compound, the IC50 (B. subtilis pol IIIC [7]; [16]) was 912 µM, the IC50 (B. subtilis pol IIIC [7]; [17]) was 23 µM and the IC50 (B. subtilis pol IIIC [7]; [18]) was 6.5 µM. It also gave an IC50 (B. subtilis pol IIIC [7]; [19]) of 5.5 µM, an MIC [8] of 20 mg/L (≈ 52.6 µM) and an MIC [9] of 2.5 mg/L (≈ 6.57 µM). For the same compound, the MIC [10] was 5 mg/L (≈ 13.1 µM).
For `CCc1cc(Nc2cc(=O)n(CCCCO)c(=O)[nH]2)ccc1C` [HB-EMAU, N3-hydroxybutyl 6-(3′-ethyl-4′-methylanilino) uracil, reference compound], the “Mechanism of inhibition of pol IIIC (double reciprocal plot)” value (B. subtilis pol IIIC [11]) was “competitive inhibition mechanism”.
